Legend:
Type in all cases: cell-based, human
[1] = tested on: hMSCs; test: Compound treatment on OS-induced osteogenic differentiation of hMSCs (ALP / alizarin red staining); conditions: for osteogenic differentiation of hMSCs combined with OS treatment: compound plus OS media
Method: (§1) 8-CPT-cAMP, Na (cat# 116812), 5-Iodotubercidin (cat# 407900), Prostaglandin E2 (PGE2, cat# 538904), SB 202190 (cat# 559388) and U0126 (cat# 662005) were purchased from Calbiochem; N6,2′-O-Dibutyryl-cAMP (cat# D0260-5MG), forskolin (cat# F6886), ascorbic acid 2-phosphate (cat# 49752-10G), (3-glycerophosphate (G-6251), dexamethasone (D8893), 3-isobutyl-1-methylxanthine (IBMX, 15879) and Insulin (19278) were purchased from Sigma/Aldrich/Fluka.
(§2) Since the targeted genes are all positively involved in intracellular cAMP signaling, we tested the effect of two compounds of opposing function on cAMP production on osteogenic differentiation of hMSCs, ADK inhibitor 5-iodotubercidin and ADCY activator forskolin (Cottam, H. B. et al., J Med Chem 36:3424-3430 (1993); de Souza, N. J. et al., Med Res Rev 3:201-219 (1983)). […] ATP has been shown as a ligand for P2RY11 receptor (Communi et al., 1997). […] The present observations are consistent with the conclusion that […] in hMSCs, and vice versa.

[2] = tested on: hMSCs; test: Adipogenic differentiation of hMSCs, Oil Red O staining; conditions: for differentiation of hMSCs into mature adipocytes: cAMP analog combined with dexamethasone; for cell fate commitment osteogenic vs adipogenic: compound combined with the OS media; for adipogenic differentiation of hMSCs, cAMP-raising compounds: compound treatment, especially in the presence of dexamethasone (FIG. 7b)
Method: Cells were rinsed with PBS twice, fixed in 10% formalin solution for 20 minutes, rinsed with PBS twice and dH2O once, washed with propylene glycol for 5 minutes, and stained with Oil red in propylene glycol (12722A, Newcomer Supply) for 30 minutes. Cells were then washed with 85% propylene glycol for 5 minutes, rinsed with dH2O 3 times and preserved in 50% glycerol.
as §1
Bone cell maturation is accompanied by extracellular matrix (ECM) mineralization (John Bilezikian et al., Principles of bone biology, Vol 1, 2nd edn: Academic Press) (2002)). To examine whether the osteogenic differentiation of hMSCs induced by the hit siRNAs can further proceed to the maturation stage, hit siRNA treated cells were cultured for 20 days. […] These observations are consistent with the conclusion that the targeted genes of the ten effective hit siRNAs not only play inhibitory roles in osteogenic specification of hMSCs, but also in bone cell maturation. […] Furthermore, in osteoporotic patients, the number of adipocytes was increased in the marrow, implying a change of cell fate disposition from osteoblast lineage to adipocyte lineage (Justesen, J. et al., Biogerontology 2:165-171 (2001); Meunier, P. et al., Clin Orthop Relat Res 80:147-154 (1971)). We therefore examined the effect of our hit siRNAs on adipogenic differentiation of hMSCs by combined treatment with an adipogenic inducing cocktail (100 μg/ml BMX, 1 μM DEX and 10 μg/ml insulin).
as §2

[3] = tested on: hMSCs; test: Alizarin red staining for calcium phosphate deposits (ECM mineralization, bone cell maturation); conditions: for intensity of alizarin red staining: OS treatment started three days after siRNA transfection and continued for 9 days (3+9OS), vs siCon
[4] = tested on: CREB; test: Western blot of active (phosphorylated) CREB; conditions: 3 days after transfection, vs siCon treated or untreated
Method: Cell lyses buffer contains 20 mM Tris pH8.0, 1 mM EDTA, 150 mM NaCl and 0.5% NP-40, and before usage, protease inhibitor cocktail (Cat# p8340, Sigma, 1:100 dilution) and phosphatase inhibitor cocktail 2 (Cat# p5726, sigma, 1:100 dilution) were added. Proteins (60 μg/well) were separated in 12% Novex Tris-Glycine gel (Cat# EC6008 box, Invitrogen) and transferred to Nitrocellulose membrane (Cat# LC2001, Invitrogen) using the XCell II blot module system (Cat# E19051, Invitrogen). The membrane was blocked in 5% milk/PBST for 1 hour at room temperature, incubated over night at 4 degree with primary antibody, washed 3 times with PBST (0.05% Tween 20 in PBS), followed by one hour incubation with secondary antibody in 5% milk/PBST and 3 times wash with PBST at room temperature. For antibody against pCREB however, PBST was substituted with PBS in all steps except for the last one. Antibody-bound proteins were detected utilizing ECL Western blotting detection reagent (Amersham Biosciences).
Anti-phospho-CREB was purchased from Upstate Biotechnology (cat# 06-519); Anti-phospho-p38 was purchased from Cell signaling technology (cat# 9910).
To find out whether CREB (cAMP Responding Element Binding protein), a common downstream effector of cAMP signaling pathway, is involved in mediating cAMP signaling controlled differentiation of hMSCs, we checked the expression level of the active form of CREB proteins in cells 3 days after siP2RY11, siADK, siGNAS, siSLC12a2 or siCon transfection. […] To further examine the role of CREB in osteogenesis and adipogenesis, a synthetic 24-mer CRE decoy oligonucleotide that can compete with endogenous CRE enhancers for binding proteins was transfected into hMSCs (Park, Y. G. et al., J Biol Chem 274:1573-1580 (1999)), which were then subjected to the treatment of osteogenic or adipogenic induction media.

Nc1ncnc2c1c(I)cn2[C@@H]1O[C@H](CO)[C@@H](O)[C@H]1O [5-iodotubercidin]
osteogenic differentiation of hMSCs combined with OS treatment [1]: significantly enhanced the osteogenic differentiation of hMSCs
adipogenic differentiation of hMSCs under compound ([2]; compound plus adipogenic inducing media, oil red o staining (FIG. 7a j-l)): inhibited the adipogenic differentiation of hMSCs in a dose dependent manner

Nc1ncnc2c1nc(Sc1ccc(Cl)cc1)n2[C@@H]1O[C@@H]2COP(=O)(O)O[C@H]2[C@H]1O [8-CPT-cAMP]
differentiation of hMSCs into mature adipocytes [2]: sufficient to differentiate hMSCs into mature adipocytes
cell fate commitment osteogenic vs adipogenic [2]: could switch cell fate commitment from osteogenic to adipogenic
adipogenic differentiation of hMSCs, cAMP-raising compounds [2]: promoted hMSCs to undergo adipogenic differentiation

Nc1ncnc2c1ncn2[C@@H]1O[C@H](COP(=O)(O)OP(=O)(O)OP(=O)(O)O)[C@@H](O)[C@H]1O [ATP]
siP2RY11 and siSLC12a2 induced osteogenesis in combination with OS ([1]; OS and ATP added on third day after siRNA transfection, continued for a week, ALP staining): dosage-dependent inhibitory effect
osteogenic differentiation of hMSCs combined with OS treatment [1]: inhibited the OS-induced osteogenesis of hMSCs
number of cells undergoing adipogenic differentiation ([2]; ATP treatment of OS-treated hMSCs): slightly increases

CCCC(=O)Nc1ncnc2c1ncn2[C@@H]1O[C@@H]2COP(=O)(O)O[C@H]2[C@H]1OC(=O)CCC [DB-cAMP, N6,2′-dibutyryl-cAMP]
differentiation of hMSCs into mature adipocytes [2]: sufficient to differentiate hMSCs into mature adipocytes
adipogenic differentiation of hMSCs, cAMP-raising compounds [2]: promoted hMSCs to undergo adipogenic differentiation

CC(C)Cn1c(=O)n(C)c(=O)c2[nH]cnc21 [IBMX, 3-isobutyl-1-methylxanthine]
cell fate commitment osteogenic vs adipogenic [2]: could switch cell fate determination from osteogenic to adipogenic differentiation
adipogenic differentiation of hMSCs, cAMP-raising compounds [2]: promoted hMSCs to undergo adipogenic differentiation

COc1cccc(-c2cc(=O)c3ccccc3o2)c1N [PD98059]
osteogenic differentiation of hMSCs combined with OS treatment [1]: inhibited the osteogenic inducing effect of OS

CCCCC[C@H](O)/C=C/[C@H]1[C@H](O)CC(=O)[C@@H]1C/C=C\CCCC(=O)O [PGE2, Prostaglandin E2]
cell fate commitment osteogenic vs adipogenic [2]: could switch cell fate determination from osteogenic to adipogenic differentiation

Oc1ccc(-c2nc(-c3ccncc3)c(-c3ccc(F)cc3)[nH]2)cc1 [SB202190]
osteogenic differentiation of hMSCs combined with OS treatment [1]: inhibited the osteogenic inducing effect of OS

siADCY8: siRNA GGAGAUCAACAAGCAUUCA targeting adenylate cyclase 8 (listed as RNA, chemistry not given here)
intensity of alizarin red staining [3]: weak enhancement

siADK: siRNA GCCACACAAAGCAGCAACA targeting adenosine kinase (listed as RNA, chemistry not given here)
level of pCREB protein [4]: increased
intensity of alizarin red staining [3]: dramatically enhanced
intensity of alizarin red staining, sequential treatment ([3]; siRNA (initial 2-4 days) followed by OS media, vs control treatment (FIG. 4)): clearly enhanced the intensity of alizarin red staining

siBCL212: siRNA CCCAGGUCUCCGAUGAACU targeting BCL2-like 2 (listed as RNA, chemistry not given here)
intensity of alizarin red staining [3]: modest enhancement

siBIRC4: siRNA UGUGCUACACAGUCAUUAC targeting baculoviral IAP repeat-containing 4 (listed as RNA, chemistry not given here)
intensity of alizarin red staining [3]: weak enhancement

siGBDR1: siRNA CCCGAAAACAUUGCUAGCA targeting putative glialblastoma cell differentiation-related (listed as RNA, chemistry not given here)
intensity of alizarin red staining [3]: dramatically enhanced

siGNAS: siRNA UCGAAGAUUGAGGACUACU targeting GNAS complex locus (listed as RNA, chemistry not given here)
level of pCREB protein [4]: increased
intensity of alizarin red staining [3]: dramatically enhanced

siKCNT1: siRNA UGCGAGCCAAGAUGGACAA targeting potassium channel, subfamily T, member 1 (listed as RNA, chemistry not given here)
intensity of alizarin red staining [3]: dramatically enhanced

siP2RY11: siRNA UGCGGGUGCUCAACGUGGA targeting purinergic receptor P2Y, G-protein coupled, 11 (listed as RNA, chemistry not given here)
level of pCREB protein [4]: increased
intensity of alizarin red staining [3]: dramatically enhanced

siSLC12a2: siRNA CCUCUUCGUGGCUACAUCU targeting solute carrier family 12, member 2 (listed as RNA, chemistry not given here)
level of pCREB protein [4]: increased
intensity of alizarin red staining [3]: dramatically enhanced

siTBX3: siRNA UGCCAAAGAGGAUGUACAU targeting T-box 3 (ulnar mammary syndrome) (listed as RNA, further chemistry not given here)
intensity of alizarin red staining [3]: no significant effect

Source: US20100184113A1, “CONTROLLING OSTEOGENESIS BY INHIBITION OF OSTEOGENIC SUPPRESSORS” (The Scripps Research Institute Office of Patent Counsel, priority 2006, published 2010)
